# Source: patent US9409893B2, “Heteroaryl derivatives and uses thereof” (Jacobus Pharmaceutical Company, Inc., priority 2012, dated 2016)
# Legend:
# [1] = test system: P. falciparum strain W2; test: [3H]-hypoxanthine growth inhibition assay, P. falciparum W2; type: cell-based; settings: Plasmodium falciparum; P. falciparum W2 (resistant to chloroquine and pyrimethamine), [3H]-hypoxanthine incorporation; read-out: W2 IC50
# How it was run: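 Parasites cultured in human O Rh+ RBCs in RPMI-1640-LPLF (low PABA and folic acid) with 10% human plasma, pH 6.9, 37° C, 5% O2/5% CO2/90% N2. Sorbitol-synchronised ring-stage cultures started at 1% parasitaemia; growth measured as [3H]-hypoxanthine incorporation in hypoxanthine-free medium. Compound stocks 1 mM in DMSO.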
# [2] = Solubility in hERG test solution (HB-PS + 0.3% DMSO); type: physicochemical; settings: 30 μM nominal concentration
# Method: All chemicals used in solution preparation were purchased from Sigma-Aldrich (St. Louis, Mo.) unless otherwise noted and were of ACS reagent grade purity or higher. Stock solutions of the test article and the positive control were prepared in dimethyl sulfoxide (DMSO) and stored frozen. Test article and positive control concentrations were prepared fresh daily by diluting stock solutions into a HEPES-buffered physiological saline (HB-PS) solution (composition in mM): NaCl, 137; KCl, 4.0; CaCl2, 1.8; MgCl2, 1; HEPES, 10; Glucose, 10; pH adjusted to 7.4 with NaOH (prepared weekly and refrigerated until use).
# Experiments were performed as outlined in the section entitled Experimental Procedures. Concentrations were selected to evaluate the concentration-response relationship of each test article based on the initial results or the solubility limits in vehicle. Each concentration was tested in at least three cells (n≧3).
# Each test article at 10 μM was applied to at least 3 cells (n≧3).
compound,measurement,setting,value
"CC(C)(C)NCc1cc(C(C)(C)C)cc(-c2ccc(C(F)(F)F)nc2)c1O.Cl [Example 1, 4-(tert-Butyl)-2-((tert-butylamino)methyl)-6-(6-(trifluoromethyl)pyridin-3-yl)phenol hydrochloride]",IC50,[1],4 nM
"CC(C)(C)NCc1cc(C(C)(C)C)cc(-c2cnc(C(F)(F)F)c(F)c2)c1O.Cl [Example 34, 4-(tert-Butyl)-2-((tert-butylamino)methyl)-6-(5-fluoro-6-(trifluoromethyl)pyridin-3-yl)phenol hydrochloride]",Solubility in hERG test solution,[2],not in solution
same,IC50,[1],2 nM
"CC(C)(C)NCc1cc(C(C)(C)C)cc(-c2cnc(C(F)(F)F)nc2)c1O.Cl [Example 33, 4-(tert-Butyl)-2-((tert-butylamino)methyl)-6-(2-(trifluoromethyl)pyrimidin-5-yl)phenol hydrochloride]",Solubility in hERG test solution,[2],not in solution
same,IC50,[1],3 nM
